Data: publication PMC10323144, “Garbage in, garbage out: how reliable training data improved a virtual screening approach against SARS-CoV-2 MPro” (Frontiers in Pharmacology, 2023)

Biological target: SARS-CoV-2 MPro (Severe acute respiratory syndrome coronavirus 2, UniProt P0DTD1)
Assay: MPro activity assay (de-quenching of Edans fluorescence on cleavage of a Dabcyl/Edans peptide)
Assay type: biochemical
Conditions: for activity at 25 µM: read-out: MPro activity (%); for inhibition at 25 µM: read-out: MPro inhibition; for Class (MPro activity class): in-house acquired data, internal screening under standardized conditions (128 compounds)

O=C(OC[C@H]1O[C@@H](OC(=O)c2ccccc2)[C@H](OC(=O)c2ccccc2)[C@@H](OC(=O)c2ccccc2)[C@@H]1OC(=O)c1ccccc1)c1ccccc1 [8a]
activity at 25 µM: 67 ± 2.5%

[O-][n+]1onc2ccc(/C=C/[S+]([O-])c3ccccc3)cc21 (stereo not shown) [8d]
activity at 25 µM: 91.6 ± 0.1%

[O-][n+]1onc2ccc(/C=C\Sc3ccc(F)cc3)cc21 [9d]
activity at 25 µM: 81.4 ± 21.5%

[O-][n+]1onc2ccc(/C=C/[S+]([O-])c3ccc(F)cc3)cc21 (stereo not shown) [10d]
activity at 25 µM: 55.6 ± 3.4%

Cc1ccc([S+]([O-])/C=C/c2ccc3no[n+]([O-])c3c2)cc1 (stereo not shown) [11d]
activity at 25 µM: 70.6 ± 0.8%

[O-][n+]1onc2ccc(/C=C\[S+]([O-])c3ccccc3)cc21 (stereo not shown) [12d]
activity at 25 µM: 56.2 ± 0.5%

O=S(=O)(/C=C\c1ccc2no[n+]([O-])c2c1)c1ccc(Cl)cc1 [13d]
activity at 25 µM: 58 ± 0.3%

Cc1ccc([S+]([O-])/C=C\c2ccc3no[n+]([O-])c3c2)cc1 (stereo not shown) [14d]
activity at 25 µM: 73.8 ± 4.4%

[O-][n+]1onc2ccc(/C=C\c3ccc4c(c3)OCO4)cc21 [15d]
activity at 25 µM: 67.4 ± 1.8%

[O-][S+](/C=C/c1ccc2nonc2c1)c1ccccc1 (stereo not shown) [16d]
activity at 25 µM: 71.9 ± 11%

O=[N+]([O-])c1ccc(CS(=O)(=O)/C=C/c2ccc3nonc3c2)cc1 [17d]
activity at 25 µM: 116 ± 15%

O=S(=O)(/C=C\c1ccc2no[n+]([O-])c2c1)c1ccccc1 [18d]
activity at 25 µM: 71.2 ± 0.9%

Cc1ccc(S(=O)(=O)/C=C\c2ccc3no[n+]([O-])c3c2)cc1 [19d]
activity at 25 µM: 98.6 ± 2.4%

Cc1ccc(S(=O)(=O)/C=C/c2ccc3no[n+]([O-])c3c2)cc1 [20d]
activity at 25 µM: 62.6 ± 4.9%

O=C(c1ccc2no[n+]([O-])c2c1)N1CCOCC1 [21d]
activity at 25 µM: 78.7 ± 3.2%

O=C(/C=C/c1ccc2ccccc2c1)c1ccccc1O [25d]
IC50 (60 min pre-incubation, 5 μM substrate): 500 nM

O=C(/C=C/c1ccc2ccccc2c1)c1ccc2ccccc2c1O [26d]
inhibition at 25 µM: 45%

COc1ccc(S(=O)(=O)Nc2nc3cc(Cl)c(Oc4cccc(Cl)c4Cl)cc3[nH]2)cc1 [30d]
inhibition at 25 µM: 42%

O=S(=O)(Nc1nc2cc(Cl)c(Oc3cccc(Cl)c3Cl)cc2[nH]1)c1ccc(Br)cc1 [32d]
inhibition at 25 µM: 25%

O=C1/C(=C/C=C/c2cccs2)CC/C1=C\C=C\c1cccs1 [37d]
inhibition at 25 µM: 20 to 40%

[O-][n+]1cc[n+]([O-])c2ccccc21 [38d]
inhibition at 25 µM: 20 to 40%

COc1ccc(C2C(C(=O)c3ccc4c(c3)OCCO4)=C(O)C(=O)N2c2nc3ccc(C)cc3s2)cc1 (stereo not shown) [AD81]
Class (MPro activity class): 0 (compounds with IC50 > 20 μM, percentage inhibition <80% at 20 µM or 50 μM, or percentage enzyme inhibition <50% at 10 µM were labelled as INACTIVE)

Cc1ccc2nc(N3C(=O)C(O)=C(C(=O)c4ccc5c(c4)OCCO5)C3c3ccc(O)cc3)sc2c1 (stereo not shown) [AD82]
Class (MPro activity class): 0 (compounds with IC50 > 20 μM, percentage inhibition <80% at 20 µM or 50 μM, or percentage enzyme inhibition <50% at 10 µM were labelled as INACTIVE)

O=C(C1=C(O)C(=O)N(c2nc3ccc(Cl)cc3s2)C1c1ccc(O)cc1)c1ccc2c(c1)OCCO2 (stereo not shown) [AD83]
Class (MPro activity class): 0 (compounds with IC50 > 20 μM, percentage inhibition <80% at 20 µM or 50 μM, or percentage enzyme inhibition <50% at 10 µM were labelled as INACTIVE)

COc1ccc(C2C(C(=O)c3ccc4c(c3)OCCO4)=C(O)C(=O)N2c2nc3ccc(Cl)cc3s2)cc1 (stereo not shown) [AD84]
Class (MPro activity class): 0 (compounds with IC50 > 20 μM, percentage inhibition <80% at 20 µM or 50 μM, or percentage enzyme inhibition <50% at 10 µM were labelled as INACTIVE)

CCCN1C(=O)C(O)=C(C(=O)c2ccccc2)C1c1ccccc1 (stereo not shown) [AD85]
Class (MPro activity class): 0 (compounds with IC50 > 20 μM, percentage inhibition <80% at 20 µM or 50 μM, or percentage enzyme inhibition <50% at 10 µM were labelled as INACTIVE)

COc1ccc(C2C(C(=O)c3ccc4c(c3)OCCO4)=C(O)C(=O)N2c2nc3ccc(OC)cc3s2)cc1 (stereo not shown) [ADKPN160]
Class (MPro activity class): 0 (compounds with IC50 > 20 μM, percentage inhibition <80% at 20 µM or 50 μM, or percentage enzyme inhibition <50% at 10 µM were labelled as INACTIVE)

O=C(C1=C(O)C(=O)N(c2nc3ccccc3s2)C1c1ccc(F)cc1)c1ccc2c(c1)OCCO2 (stereo not shown) [ADKPN161]
Class (MPro activity class): 0 (compounds with IC50 > 20 μM, percentage inhibition <80% at 20 µM or 50 μM, or percentage enzyme inhibition <50% at 10 µM were labelled as INACTIVE)

COc1ccc(C2C(C(=O)c3ccc(OC)c(OC)c3)=C(O)C(=O)N2c2nc3ccc(OC)cc3s2)cc1 (stereo not shown) [ADKPN162]
Class (MPro activity class): 0 (compounds with IC50 > 20 μM, percentage inhibition <80% at 20 µM or 50 μM, or percentage enzyme inhibition <50% at 10 µM were labelled as INACTIVE)

COc1ccc(C2C(C(=O)c3ccc(OC)c(OC)c3)=C(O)C(=O)N2c2nc3ccc(Cl)cc3s2)cc1 (stereo not shown) [ADKPN163]
Class (MPro activity class): 0 (compounds with IC50 > 20 μM, percentage inhibition <80% at 20 µM or 50 μM, or percentage enzyme inhibition <50% at 10 µM were labelled as INACTIVE)

COc1ccc(C(=O)C2=C(O)C(=O)N(c3nc4ccc(Cl)cc4s3)C2c2ccc(F)cc2)cc1OC (stereo not shown) [ADKPN164]
Class (MPro activity class): 0 (compounds with IC50 > 20 μM, percentage inhibition <80% at 20 µM or 50 μM, or percentage enzyme inhibition <50% at 10 µM were labelled as INACTIVE)

COc1ccc(C2C(C(=O)c3ccc4c(c3)OCCO4)=C(O)C(=O)N2c2nc3ccccc3s2)cc1 (stereo not shown) [ADKPN165]
Class (MPro activity class): 0 (compounds with IC50 > 20 μM, percentage inhibition <80% at 20 µM or 50 μM, or percentage enzyme inhibition <50% at 10 µM were labelled as INACTIVE)

O=C(C1=C(O)C(=O)N(c2nc3ccc(Cl)cc3s2)C1c1ccc(F)cc1)c1ccc2c(c1)OCCO2 (stereo not shown) [ADRMC150]
Class (MPro activity class): 0 (compounds with IC50 > 20 μM, percentage inhibition <80% at 20 µM or 50 μM, or percentage enzyme inhibition <50% at 10 µM were labelled as INACTIVE)

Cc1ccc2nc(N3C(=O)C(O)=C(C(=O)c4ccc5c(c4)OCCO5)C3c3ccccc3)sc2c1 (stereo not shown) [ADRMC151]
Class (MPro activity class): 0 (compounds with IC50 > 20 μM, percentage inhibition <80% at 20 µM or 50 μM, or percentage enzyme inhibition <50% at 10 µM were labelled as INACTIVE)

COc1cc(C2C(C(=O)c3ccc4c(c3)OCCO4)=C(O)C(=O)N2c2nc3ccc(C)cc3s2)ccc1O (stereo not shown) [ADRMC152]
Class (MPro activity class): 0 (compounds with IC50 > 20 μM, percentage inhibition <80% at 20 µM or 50 μM, or percentage enzyme inhibition <50% at 10 µM were labelled as INACTIVE)

COc1ccc(C2C(C(=O)c3ccc4c(c3)OCCO4)=C(O)C(=O)N2c2nc3ccc(C)cc3s2)cc1OC (stereo not shown) [ADRMC153]
Class (MPro activity class): 0 (compounds with IC50 > 20 μM, percentage inhibition <80% at 20 µM or 50 μM, or percentage enzyme inhibition <50% at 10 µM were labelled as INACTIVE)

Cc1ccc2nc(N3C(=O)C(O)=C(C(=O)c4ccc5c(c4)OCCO5)C3c3ccc(F)cc3)sc2c1 (stereo not shown) [ADRMC154]
Class (MPro activity class): 0 (compounds with IC50 > 20 μM, percentage inhibition <80% at 20 µM or 50 μM, or percentage enzyme inhibition <50% at 10 µM were labelled as INACTIVE)

COc1ccc2nc(N3C(=O)C(O)=C(C(=O)c4ccc5c(c4)OCCO5)C3c3ccc(OC)c(OC)c3)sc2c1 (stereo not shown) [ADRMC155]
Class (MPro activity class): 0 (compounds with IC50 > 20 μM, percentage inhibition <80% at 20 µM or 50 μM, or percentage enzyme inhibition <50% at 10 µM were labelled as INACTIVE)

COc1ccc2nc(N3C(=O)C(O)=C(C(=O)c4ccc5c(c4)OCCO5)C3c3ccc(O)c(OC)c3)sc2c1 (stereo not shown) [ADRMC156]
Class (MPro activity class): 0 (compounds with IC50 > 20 μM, percentage inhibition <80% at 20 µM or 50 μM, or percentage enzyme inhibition <50% at 10 µM were labelled as INACTIVE)

COc1ccc(C2C(C(=O)c3ccc4c(c3)OCCO4)=C(O)C(=O)N2c2nc3ccc(Cl)cc3s2)cc1OC (stereo not shown) [ADRMC157]
Class (MPro activity class): 0 (compounds with IC50 > 20 μM, percentage inhibition <80% at 20 µM or 50 μM, or percentage enzyme inhibition <50% at 10 µM were labelled as INACTIVE)

COc1cc(C2C(C(=O)c3ccc4c(c3)OCCO4)=C(O)C(=O)N2c2nc3ccc(Cl)cc3s2)ccc1O (stereo not shown) [ADRMC158]
Class (MPro activity class): 0 (compounds with IC50 > 20 μM, percentage inhibition <80% at 20 µM or 50 μM, or percentage enzyme inhibition <50% at 10 µM were labelled as INACTIVE)

O=C(C1=C(O)C(=O)N(c2nc3ccc(Cl)cc3s2)C1c1ccccc1)c1ccc2c(c1)OCCO2 (stereo not shown) [ADRMC159]
Class (MPro activity class): 0 (compounds with IC50 > 20 μM, percentage inhibition <80% at 20 µM or 50 μM, or percentage enzyme inhibition <50% at 10 µM were labelled as INACTIVE)

COC(=O)CN1C(=O)C(C2C(=O)OCC2c2ccccc2)C1C=Cc1ccccc1 (stereo not shown) [CMD111]
Class (MPro activity class): 0 (compounds with IC50 > 20 μM, percentage inhibition <80% at 20 µM or 50 μM, or percentage enzyme inhibition <50% at 10 µM were labelled as INACTIVE)

O=c1[nH]sc2ccccc12 [COV19001]
Class (MPro activity class): 1 (Compounds with IC50 < 10 µM or with a percentage of enzyme inhibition >50% at 10 µM were labelled as ACTIVE)

Cc1cccc2c(=O)[nH]sc12 [COV19002]
Class (MPro activity class): 0 (compounds with IC50 > 20 μM, percentage inhibition <80% at 20 µM or 50 μM, or percentage enzyme inhibition <50% at 10 µM were labelled as INACTIVE)

O=c1c2ccccc2sn1Cc1ccc(F)cc1 [COV19003]
Class (MPro activity class): 1 (Compounds with IC50 < 10 µM or with a percentage of enzyme inhibition >50% at 10 µM were labelled as ACTIVE)

O=c1c2ccccc2sn1Cc1ccc(C(F)(F)F)cc1 [COV19004]
Class (MPro activity class): 1 (Compounds with IC50 < 10 µM or with a percentage of enzyme inhibition >50% at 10 µM were labelled as ACTIVE)

Cc1cc(Cl)cc2sn(Cc3ccccc3)c(=O)c12 [COV19006]
Class (MPro activity class): 1 (Compounds with IC50 < 10 µM or with a percentage of enzyme inhibition >50% at 10 µM were labelled as ACTIVE)

Cc1cccc2c(=O)n(Cc3ccccc3)sc12 [COV19007]
Class (MPro activity class): 0 (compounds with IC50 > 20 μM, percentage inhibition <80% at 20 µM or 50 μM, or percentage enzyme inhibition <50% at 10 µM were labelled as INACTIVE)
